Here are results for two compounds from ChEMBL document CHEMBL4325845, “Tau Tubulin Kinase 1 (TTBK1), a new player in the fight against neurodegenerative diseases” (Eur J Med Chem, 2019).

Structures are written as SMILES.

The nature of experiment [1]: Inhibition of FTK (unknown origin). The arrangement: species or system Homo sapiens.
The target in experiment [2] is T1, Tau-tubulin kinase 1 (Homo sapiens, UniProt Q5TCY1). In words: Binding affinity to phosphorylated TTBK1 (unknown origin) assessed as association rate constant by SPR analysis. On the technique in general: In SPR one partner is held on a chip, and binding of the other changes the refractive index at the surface.
The target of experiment [3] is T1, Tau-tubulin kinase 1. Put plainly: Binding affinity to phosphorylated TTBK1 (unknown origin) by SPR analysis.

T1 sequence (Q5TCY1 whole entry): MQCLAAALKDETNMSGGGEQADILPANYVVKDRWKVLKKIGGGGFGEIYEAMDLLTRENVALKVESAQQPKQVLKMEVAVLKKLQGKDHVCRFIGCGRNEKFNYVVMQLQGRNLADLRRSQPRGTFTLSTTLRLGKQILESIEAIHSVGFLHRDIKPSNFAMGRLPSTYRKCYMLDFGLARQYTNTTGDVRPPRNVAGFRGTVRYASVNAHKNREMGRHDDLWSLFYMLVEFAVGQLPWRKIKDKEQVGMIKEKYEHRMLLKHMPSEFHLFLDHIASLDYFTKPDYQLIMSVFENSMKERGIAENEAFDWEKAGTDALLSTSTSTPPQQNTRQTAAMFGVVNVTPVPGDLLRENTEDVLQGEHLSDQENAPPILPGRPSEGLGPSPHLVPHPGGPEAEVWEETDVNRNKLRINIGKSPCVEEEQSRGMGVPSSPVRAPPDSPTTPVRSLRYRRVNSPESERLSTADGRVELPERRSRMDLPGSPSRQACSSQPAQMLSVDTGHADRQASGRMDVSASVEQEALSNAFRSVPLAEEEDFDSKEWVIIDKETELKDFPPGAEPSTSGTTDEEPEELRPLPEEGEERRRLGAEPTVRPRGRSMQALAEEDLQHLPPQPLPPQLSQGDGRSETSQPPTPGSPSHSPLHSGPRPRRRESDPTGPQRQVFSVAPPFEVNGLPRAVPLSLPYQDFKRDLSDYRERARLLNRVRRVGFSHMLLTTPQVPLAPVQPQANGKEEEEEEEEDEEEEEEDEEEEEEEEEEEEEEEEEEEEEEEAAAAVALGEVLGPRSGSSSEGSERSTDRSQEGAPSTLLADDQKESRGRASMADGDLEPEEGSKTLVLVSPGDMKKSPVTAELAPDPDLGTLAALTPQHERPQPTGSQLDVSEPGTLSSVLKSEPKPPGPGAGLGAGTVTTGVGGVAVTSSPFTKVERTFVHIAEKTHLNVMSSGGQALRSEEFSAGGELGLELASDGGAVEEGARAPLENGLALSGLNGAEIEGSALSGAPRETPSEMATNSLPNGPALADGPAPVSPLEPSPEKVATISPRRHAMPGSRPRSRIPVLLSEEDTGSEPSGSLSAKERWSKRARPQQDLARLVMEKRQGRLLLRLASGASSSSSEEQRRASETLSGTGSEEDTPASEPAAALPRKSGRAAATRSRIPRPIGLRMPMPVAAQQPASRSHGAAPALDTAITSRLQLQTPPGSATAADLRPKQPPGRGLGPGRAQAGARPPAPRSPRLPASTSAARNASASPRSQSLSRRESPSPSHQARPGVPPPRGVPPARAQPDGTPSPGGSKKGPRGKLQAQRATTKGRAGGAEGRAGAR

Regarding `COc1cc2ncnc(Nc3cccc(O)c3)c2cc1OC`, the IC50 (usually the midpoint of a concentration-inhibition curve) in experiment [1] was 11 µM. Moreover, the K in experiment [2] came out at 6.8 ×10⁶ /s.
With `COC(=O)c1cc(Nc2ncnc3[nH]ccc23)ccc1Br`, the equilibrium dissociation constant (Kd) (usually a measure of binding affinity in units of concentration) in experiment [3] was found to be 4.1 µM.
